In patent US20050255096A1, “Combination treatment for acute myocardial infarction” (priority 2002, published 2005):

Tested on: patients with acute myocardial infarction
Assay: Effect of the combination on the mortality of the patients with acute myocardial infarction (180 day mortality)
Format: in vivo
Conditions: 6-hour infusion of levosimendan, bolus 6, 12 or 24 μg/kg then 0.1, 0.2 or 0.4 μg/kg/min
Procedure: Effect of the combination on the mortality of the patients with acute myocardial infarction
Patients who had suffered from acute myocardial infarction within five days received placebo or a 6-hour infusion of levosimendan using a bolus of 6, 12 or 24 μg/kg and subsequent infusion of 0.1, 0.2 or 0.4 μg/kg/min. Patients were divided according to whether they had received thrombolytic therapy or not. The 180 day mortality was measured. It can be seen that the combination provided synergistic reduction in the mortality of patients with acute myocardial infarction.

[1] = patients who did not receive thrombolytic, N = 331
[2] = patients who received thrombolytic, N = 70

CC1CC(=O)NN=C1c1ccc(NN=C(C#N)C#N)cc1 (single isomer, unassigned; (-)) [Levosimendan, (−)-enantiomer of [[4-(1,4,5,6-tetrahydro-4-methyl-6-oxo-3-pyridazinyl)phenyl]hydrazono]propanedinitrile]
180-day mortality, Event (%) [1]: 24.8%
180-day mortality, Event n [1]: 82
180-day mortality, Event (%) [2]: 12.8%
180-day mortality, Event n [2]: 9
